According to patent publication US20050079529A1, “Very large scale immobilized polymer synthesis” (Affymetrix, INC., priority 1989, published 2005):
Entries after “also recorded” stand apart in the source; their conditions may differ.

test system: Herz antibody; assay: YGGFL/GGFL checkerboard slide exposed to Herz antibody and goat anti-mouse fluorescein conjugate; format: binding; conditions: 500×500 μm mask
Protocol: A first antibody, known as the Herz antibody, was applied to the surface of the slide for 45 minutes at 2 μg/ml in a supercocktail (containing 1% BSA and 1% ovalbumin also in this case). A second antibody, goat anti-mouse fluorescein conjugate, was then added at 2 μg/ml in the supercocktail buffer, and allowed to incubate for 2 hours.
Monomer-by-monomer synthesis of YGGFL and GGFL in alternate squares was performed on a slide in a checkerboard pattern and the resulting slide was exposed to the Herz antibody. This experiment and the results thereof are illustrated in FIGS. 13A, 13B, 13C, and 13D.
In FIG. 13A, a slide is shown which is derivatized with t-BOC-aminopropyl-triethoxysilane. The slide was treated with TFA to remove the t-BOC protecting group. t-BOC-6-aminocaproic acid was then coupled onto the aminopropyl groups. The aminocaproic acid serves as a spacer between the aminopropyl group and the peptide to be synthesized. The amino end of the spacer was deprotected and coupled to NVOC-Leucine. The entire slide was then illuminated with 12 mW of 325 nm broadband illumination. The slide was then coupled with NVOC-Phenylalanine and washed. The entire slide was again illuminated, then coupled to NVOC-Glycine and washed. […]
The resulting fluorescence scan is shown in FIG. 13C, and the scale for the fluorescence intensity is again given on the right. […]

Molecule | recognition by Herz antibody
GGFL: tetrapeptide, SEQ ID NO:15 | not recognized

test system: antibody 3E7; assay: 10-step binary synthesis array of 1,024 peptides, fluorescence scan after antibody 3E7 and fluoresceinated antibody; format: binding, mouse; conditions: not given
Excerpt: The power of the binary masking strategy can be appreciated by the outcome of a 10-step synthesis that produced 1,024 peptides. The polynomial expression for this 10-step binary synthesis was: (f+Ø)(Y+Ø)(G+Ø)(A+Ø)(G+Ø)(T+Ø)(F+Ø)(L+Ø)(S+Ø)(F+Ø)
Each peptide occupied a 400×400 μm square. A 32×32 peptide array (1,024 peptides, including the null peptide and 10 peptides of l=1, and a limited number of duplicates) was clearly evident in a fluorescence scan following side group deprotection and treatment with the antibody 3E7 and fluoresceinated antibody. Each synthesis site was a 400×400 μm square.
(x=20, y=9). […] The median value of the array was 4,800 counts.
The identity of each peptide in the array could be determined from its x and y coordinates (each range from 0 to 31) and the map of FIG. 29. The chemical units at positions 2, 5, 6, 9, and 10 are specified by the y coordinate and those at positions 1, 3, 4, 7, 8 by the x coordinate. All but one of the peptides was shorter than 10 residues. For example, the peptide at x=12 and y=3 is YGAGF (SEQ ID NO:30; […]).
It is often desirable to deduce a binding affinity of a given peptide from the measured fluorescence intensity. Conceptually, the simplest case is one in which a single peptide binds to a univalent antibody molecule. The fluorescence scan is carried out after the slide is washed with buffer for a defined time. The order of fluorescence intensities is then a measure primarily of the relative dissociation rates of the antibody-peptide complexes. If the on-rate constants are the same (e.g., if they are diffusion-controlled), the order of fluorescence intensities will typically correspond to the order of binding affinities. However, the situation is sometimes more complex because a bivalent primary antibody and a bivalent secondary antibody are used. The density of peptides in a synthesis area corresponded to a mean separation of […], which would allow multivalent antibody-peptide interactions. […] For a more complete analysis of how the present invention can be extended to the binding affinity of an immobilized ligand to a receptor, see U.S. Ser. No. 07/796,947, filed Nov. 22, 1991, and incorporated herein by reference.

Molecule | rank of fluorescence in the 1,024 peptide array
YGAFLS: SEQ ID NO:4 | brightest element of the array; also recorded: most highly fluorescent
YGGFLS: SEQ ID NO:7 | most highly fluorescent
YGAFLF: SEQ ID NO:12 | most highly fluorescent
YGAFL: SEQ ID NO:6 | most highly fluorescent
YGALS: SEQ ID NO:9 | most highly fluorescent
YGGFS: SEQ ID NO:10 | most highly fluorescent
YGAL: SEQ ID NO:11 | most highly fluorescent
YGAF: SEQ ID NO:8 | most highly fluorescent
YGAFS: SEQ ID NO:5 | most highly fluorescent
YGAFLSF | most highly fluorescent
YGGLS: SEQ ID NO:14 | most highly fluorescent
YGAFF: SEQ ID NO:13 | most highly fluorescent
YGAFSF: SEQ ID NO:16 | most highly fluorescent

test system: antibody 3E7; assay: Fluorescence scan of 50 μm YGGFL/PGGFL checkerboard array probed with antibody 3E7 and fluoresceinated goat anti-mouse antibody; format: binding; conditions: 2 μg/ml 3E7; 50 μm checkerboard
Protocol: FIG. 11 is a flow chart illustrating another example of the invention. Carboxy-activated NVOC-leucine was allowed to react with an aminated substrate. The carboxy activated HOBT ester of leucine and other amino acids used in this synthesis was formed by mixing 0.25 mmol of the NVOC amino protected amino acid with 37 mg HOBT (1-hydroxybenzotriazole), 111 mg BOP (benzotriazolyl-n-oxy-tris (dimethylamino)-phosphoniumhexa-fluorophosphate) and 86 μl DIEA (diisopropylethylamine) in 2.5 ml DMF. The NVOC protecting group was removed by uniform illumination. Carboxy-activated NVOC-phenylalanine was coupled to the exposed amino groups for 2 hours at room temperature, and then washed with DMF and methylene chloride. Two unmasked cycles of photodeprotection and coupling with carboxy-activated NVOC-glycine were carried out. The surface was then illuminated through a chrome on glass 50 μm checkerboard pattern mask. Carboxy-activated Na-tBOC-O-tButyl-L-tyrosine was then added. […]
The array of pentapeptides was probed with a mouse monoclonal antibody directed against β-endorphin. […] The surface was scanned with an epi-fluorescence microscope. […] The height of each spike in this display is linearly proportional to the integrated fluorescence intensity in a 2.5 μm pixel. […] There is little variation in the fluorescence intensity of different YGGFL squares. […]

Molecule | binding of antibody 3E7 to surface peptide
Pro-Gly-Gly-Phe-Leu (PGGFL) | does not bind

test system: antibody 3E7; assay: not given; conditions: known from Meo et al., Proc. Natl. Acad. Sci. USA (1983) 80:4084; cited from earlier work

Molecule | affinity of binding by antibody 3E7
YGGFM: SEQ ID NO:21, the immunogen used to obtain antibody 3E7 | nanomolar affinity

test system: Herz antibody; assay: 50 μm checkerboard of YGGFL and YPGGFL, antibody fluorescence plot; format: binding, mouse; conditions: not given

Molecule | recognition / binding by the antibody
YPGGFL: peptide, SEQ ID NO:3 | does not bind significantly

test system: not listed separately; assay: Photolysis of N-protected L-phenylalanine in solution; format: physicochemical; conditions: 5 mM H2SO4/Dioxane; 0.10 mM protected phenylalanine
Protocol: The photoremovable protecting groups of the present invention are readily removed. For example, the photolysis of N-protected L-phenylalanine in solution having different photoremovable protecting groups was analyzed, and the results are presented in the following table: […]

Molecule | t1/2 in seconds, photolysis of protected L-Phe-OH
COc1cc(COC(=O)NC(Cc2ccccc2)C(=O)O)c([N+](=O)[O-])cc1OC (stereo not shown) [NVOC, reference compound] | 1.63 min
CC(OC(=O)NC(Cc1ccccc1)C(=O)O)c1cc2c(cc1[N+](=O)[O-])OCO2 (stereo not shown) [MeNPOC] | 0.367 min
O=C(NC(Cc1ccccc1)C(=O)O)OCc1ccccc1[N+](=O)[O-] (stereo not shown) [NBOC, reference compound] | 26.25 min

same assay, conditions: Dioxane; 0.10 mM protected phenylalanine

Molecule | t1/2 in seconds, photolysis of protected L-Phe-OH
COc1cc(COC(=O)NC(Cc2ccccc2)C(=O)O)c([N+](=O)[O-])cc1OC (stereo not shown) [NVOC, reference compound] | 1.83 min
CC(OC(=O)NC(Cc1ccccc1)C(=O)O)c1cc2c(cc1[N+](=O)[O-])OCO2 (stereo not shown) [MeNPOC] | 0.317 min
O=C(NC(Cc1ccccc1)C(=O)O)OCc1ccccc1[N+](=O)[O-] (stereo not shown) [NBOC, reference compound] | 21.47 min

test system: anti-dynorphin B monoclonal antibody; assay: Dynorphin B deletion peptide array, relative binding of anti-dynorphin B monoclonal antibody by fluorescence intensity; conditions: mean ± spread over N synthesis sites
Protocol: The binding epitope on dynorphin B for the anti-dynorphin B antibody described above was determined by deleting various amino acids and combinations of amino acids from the overall sequence of dynorphin B. The peptides containing these various deletions were prepared on a substrate by the general protection-deprotection methods described above. Then the substrate was exposed to the anti-dynorphin B monoclonal antibody and a fluorescence image was produced as shown in FIG. 33.
From the intensity distribution contained in this plot, it was possible to determine the relative binding affinity to various of the peptides.

Molecule | RELATIVE INTENSITY
F L R R Q F K V V T: deletion peptide from the dynorphin B sequence (FLRRQFKVVT) | 84.2 ± 28.2
F L R R Q F K V V: deletion peptide from the dynorphin B sequence (FLRRQFKVV) | 37.4 ± 14.6
K V V T: deletion peptide from the dynorphin B sequence, SEQ ID NO:36 (KVVT) | 10.7 ± 1.8
F L R R Q F K: deletion peptide from the dynorphin B sequence (FLRRQFK) | 10.2 ± 2.8
Q F K V V T: deletion peptide from the dynorphin B sequence (QFKVVT) | 36.2 ± 16.0
R R Q F K V V T: deletion peptide from the dynorphin B sequence (RRQFKVVT) | 98.8 ± 0.9
F L R R Q F K V: deletion peptide from the dynorphin B sequence (FLRRQFKV) | 13.7 ± 3.0
L R R Q F K V V T: deletion peptide from the dynorphin B sequence (LRRQFKVVT) | 86.9 ± 13.7
F L R R Q F: deletion peptide from the dynorphin B sequence (FLRRQF) | 8.5 ± 3.4

same assay, conditions: second value in parentheses

Molecule | RELATIVE INTENSITY, value in parentheses (ADJUSTED)
F L R R Q F K V V T: deletion peptide from the dynorphin B sequence (FLRRQFKVVT) | (98.3 ± 1.2)
F L R R Q F K V V: deletion peptide from the dynorphin B sequence (FLRRQFKVV) | (30.5 ± 5.4)

test system: antibody 3E7; assay: 10-step binary synthesis array of 1,024 peptides, fluorescence scan after antibody 3E7 and fluoresceinated antibody; format: binding, mouse; conditions: additional binary syntheses based on peptides on phage leads

Molecule | fluorescence signal relative to YGGFM
YGAFM: SEQ ID NO:19 | stronger fluorescence signals than does YGGFM
YGAFQ: SEQ ID NO:20 | stronger fluorescence signals than does YGGFM
YGAFMQ: SEQ ID NO:18 | stronger fluorescence signals than does YGGFM
